# System: Paracoccus carotinifaciens strain E-396 (FERM BP-4283)
# Test: Amino acid supplementation (20 amino acids), test tube culture, carotenoid by HPLC and growth by OD610
# Assay type: cell-based
# Conditions: amino acid at 1.0 g/L; for effect on the production of carotenoid pigments: versus tube with no amino acid; for Astaxanthin / Total carotenoid: culture solution; for Astaxanthin / Total carotenoid / OD610: 28° C. for 4 days; for OD610: microbial cell growth, absorbance at 610 nm
# Description: In the examples, carotenoids were quantified by high performance liquid chromatography (HPLC) as follows.
# Two columns of Wakosil-II 5 SIL-100 (φ4.6×250 mm) (Wako Pure Chemical Industries, Ltd., Japan) were connected to each other for use as a column. Elution was performed by flowing an n-hexane-tetrahydrofuran-methanol mixed solution (40:20:1), which was a mobile phase, at a flow rate of 1.0 mL/minute at a constant temperature around room temperature. The measurement was performed as follows. Samples were each dissolved in tetrahydrofuran and then diluted 100-fold with the mobile phase. Each dilution was injected in a volume of 20 μL. The column eluate was detected at a wavelength of 470 nm. As a reference for quantification, astaxanthin (SIGMA, Cat. No. A9335) was used. The astaxanthin concentration of the reference solution was determined using the following equation after measuring the absorbance (A) of the reference solution at 477 nm and the area percentage % (B) of the astaxanthin peak at the time of HPLC analysis under the above conditions. Astaxanthin concentration (mg/L)=A/2150×B×100
# A medium of the following composition (sucrose 30 g/L, corn steep liquor 30 g/L, potassium dihydrogenphosphate 1.5 g/L, disodium hydrogenphosphate 12-hydrate 3.8 g/L, calcium chloride dihydrate 5.0 g/L, magnesium sulfate 7-hydrate 0.7 g/L, iron sulfate 7-hydrate 0.3 g/L, pH 7.2) was dispensed in 8 ml volumes into cotton-plugged test tubes having an inner diameter of 18 mm and sterilized in an autoclave at 121° C. for 15 minutes to prepare a test tube medium for seed culture.
# Next, a medium of the following composition (glucose 30 g/L, filtered corn steep liquor 5 g/L, ammonium sulfate 1.5 g/L, potassium dihydrogenphosphate 1.5 g/L, disodium hydrogenphosphate 12-hydrate 3.8 g/L, calcium chloride dihydrate 5.0 g/L, magnesium sulfate 7-hydrate 0.7 g/L, iron sulfate 7-hydrate 0.6 g/L, ester-based defoaming agent 0.2 g/L) was dispensed in 8 ml volumes into cotton-plugged test tubes having an inner diameter of 18 mm (21 tubes in total).
# The mediums in these test tubes were supplemented with 20 amino acids, glycine, alanine, valine, leucine, isoleucine, serine, threonine, aspartic acid, glutamic acid, asparagine, glutamine, lysine, arginine, cysteine, methionine, phenylalanine, tyrosine, tryptophan, histidine and proline, respectively, at 1.0 g/L. One of the tubes was supplemented with no amino acid as a control. Finally, the mediums in the tubes were adjusted to pH 7.1 with aqueous sodium hydroxide or aqueous sulfuric acid and then sterilized in an autoclave at 121° C. for 20 minutes.
# Paracoccus carotinifaciens strain E-396 (FERM BP-4283) was inoculated into the test tube medium for seed culture and then cultured with shaking at 28° C. for 2 days at 300 spm. The resulting culture solution was then inoculated in 0.1 ml volumes into the 21 test tube media, respectively, and cultured with shaking at 28° C. for 4 days at 300 spm.
# Each culture solution was measured for its carotenoid concentration by HPLC and microbial cell growth was determined by OD610 (absorbance at 610 nm).
Compound,effect on the production of carotenoid pigments,Astaxanthin [mg/L],Total carotenoid [mg/L],OD610
"C[C@H](N)C(=O)O [Alanine, alanine]",stimulatory effect,6.2,20.3,13
"N=C(N)NCCC[C@H](N)C(=O)O [Arginine, arginine]",stimulatory effect,5.1,11.7,13
"NC(=O)C[C@H](N)C(=O)O [Asparagine, asparagine]",stimulatory effect,8.1,24.2,14
"N[C@@H](CC(=O)O)C(=O)O [Aspartic Acid, aspartic acid]",stimulatory effect,9.4,27.0,18
"N[C@@H](CS)C(=O)O [Cysteine, cysteine]",clear inhibitory effect,0.7,3.2,4
"NC(=O)CC[C@H](N)C(=O)O [Glutamine, glutamine]",stimulatory effect,8.3,25.8,17
"NCC(=O)O [Glycine, glycine]",stimulatory effect,6.2,19.0,18
"N[C@@H](Cc1c[nH]cn1)C(=O)O [Histidine, histidine]",–,3.3,8.1,8
"CC[C@H](C)[C@H](N)C(=O)O [Isoleucine, isoleucine]",clear inhibitory effect,1.3,4.5,6
"CC(C)C[C@H](N)C(=O)O [Leucine, leucine]",stimulatory effect,4.7,10.1,11
"NCCCC[C@H](N)C(=O)O [Lysine, lysine]",clear inhibitory effect,1.1,4.9,11
"CSCC[C@H](N)C(=O)O [Methionine, methionine]",clear inhibitory effect,1.4,5.0,7
"N[C@@H](Cc1ccccc1)C(=O)O [Phenylalanine, phenylalanine]",stimulatory effect,4.9,10.6,10
"O=C(O)[C@@H]1CCCN1 [Proline, proline]",stimulatory effect,5.0,10.9,13
"N[C@@H](CO)C(=O)O [Serine, serine]",stimulatory effect,6.0,16.4,13
"C[C@@H](O)[C@H](N)C(=O)O [Threonine, threonine]",stimulatory effect,5.2,12.5,8
"N[C@@H](Cc1c[nH]c2ccccc12)C(=O)O [Tryptophan, tryptophan]",–,3.0,7.0,10
"N[C@@H](Cc1ccc(O)cc1)C(=O)O [Tyrosine, tyrosine]",stimulatory effect,5.0,11.3,12
"CC(C)[C@H](N)C(=O)O [Valine, valine]",–,3.0,9.2,10

# From patent publication US8993282B2, “Carotenoid fermentation method” (JX Nippon Oil & Energy Corporation, priority 2008, dated 2015)
